According to patent publication US20210137886A1, “INHIBITORS OF METALLO-BETA-LACTAMASES” (Oxford University Innovation Limited, priority 2017, published 2021):
pIC50: −log10 of the molar value. Converted amounts (≈) assume the structure as drawn. Values belong to the compound of their own block, whether it stands above or below them.

Experiments:
[1] = biological target: NDM-1 (New Delhi metallo-β-lactamase-1) (Klebsiella pneumoniae, UniProt C7C422); experiment: Metallo-β-lactamase enzyme inhibition, standard assay protocol
[2] = biological target: VIM-1 (Veronese metallo-β-lactamase-1) (Pseudomonas aeruginosa, UniProt A0A0F7KYQ8); experiment: as above
IMP-1 (Imipenemase-1) = IMP-1 (Imipenemase-1) (Serratia marcescens, UniProt P52699); experiment: as above
[3] = biological target: VIM-2 (Veronese metallo-β-lactamase-2) (Escherichia coli, UniProt Q5U7L7); experiment: as above
[4] = system: Klebsiella pneumoniae NDM-1; experiment: Meropenem MIC, CLSI broth or agar microdilution, strain entry 6; assay type: cell-based; conditions: for Change in MIC value of meropenem: strain entry 6, Klebsiella pneumoniae NDM-1
Description: (§1) In each case DMSO was used to dissolve inhibitors.

[5] = system: Pseudomonas aeruginosa VIM-2; experiment: Meropenem MIC, CLSI broth or agar microdilution, strain entry 5; assay type: cell-based; conditions: for Change in MIC value of meropenem: strain entry 5, Pseudomonas aeruginosa VIM-2
Description: as §1

E. coli VIM-1 = experiment: Meropenem MIC, CLSI broth or agar microdilution, strain entry 3; assay type: cell-based; conditions: for Change in MIC value of meropenem: strain entry 3, E. coli VIM-1
Description: as §1

[6] = system: Klebsiella pneumoniae NDM-1 + DHA + CTX − M-15; experiment: Meropenem MIC, CLSI broth or agar microdilution, strain entry 7; assay type: cell-based
[7] = system: Klebsiella pneumoniae IMP-4; experiment: Meropenem MIC, CLSI broth or agar microdilution, strain entry 1; assay type: cell-based
[8] = system: Klebsiella pneumoniae VIM-1; experiment: Meropenem MIC, CLSI broth or agar microdilution, strain entry 4; assay type: cell-based
E. coli IMP-4 = experiment: Meropenem MIC, CLSI broth or agar microdilution, strain entry 2; assay type: cell-based

Sequence of IMP-1 (Imipenemase-1) (P52699 19-246, looked up, species assumed): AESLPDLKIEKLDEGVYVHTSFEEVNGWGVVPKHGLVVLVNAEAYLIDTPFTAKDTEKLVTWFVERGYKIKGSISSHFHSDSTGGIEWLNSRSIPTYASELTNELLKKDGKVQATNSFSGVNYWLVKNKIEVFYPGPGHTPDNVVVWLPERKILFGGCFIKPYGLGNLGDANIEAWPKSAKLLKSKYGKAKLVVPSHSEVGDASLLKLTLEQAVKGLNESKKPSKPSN
Sequence of NDM-1 (New Delhi metallo-β-lactamase-1) (C7C422 29-270, looked up, species assumed): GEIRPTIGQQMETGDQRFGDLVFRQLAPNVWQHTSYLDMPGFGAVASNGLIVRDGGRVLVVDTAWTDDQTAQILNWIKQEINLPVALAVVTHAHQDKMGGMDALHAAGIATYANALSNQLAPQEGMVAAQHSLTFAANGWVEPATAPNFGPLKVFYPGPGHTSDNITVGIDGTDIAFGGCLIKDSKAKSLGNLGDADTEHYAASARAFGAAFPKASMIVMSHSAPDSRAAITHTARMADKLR

- pIC50 [1]: 3.90
- pIC50 [2]: < 3.60
- pIC50 (IMP-1 (Imipenemase-1)): < 3.60
- pIC50 [3]: 4.40
Compound: O=C(O)c1cc2scc(C3CC3)c2[nH]1 [Example 8, 3-cyclopropyl-4H-thieno[3,2-b]pyrrole-5-carboxylic acid]

- pIC50 [1]: 4.40
- pIC50 [2]: < 3.60
- pIC50 (IMP-1 (Imipenemase-1)): < 4.20
- pIC50 [3]: 4.70
Compound: CC(C)c1csc2cc(C(=O)O)[nH]c12 [Example 7, 3-isopropyl-4H-thieno[3,2-b]pyrrole-5-carboxylic acid]

- pIC50 [1]: 6.50
- pIC50 [2]: 5.80
- pIC50 (IMP-1 (Imipenemase-1)): 4.90
- pIC50 [3]: 7.30
Compound: CC(=O)Nc1cccc(-c2c(C(=O)O)[nH]c3c(Br)csc23)c1 [Example 9, 6-(3-acetamidophenyl)-3-bromo-4H-thieno[3,2-b]pyrrole-5-carboxylic acid]

- pIC50 [1]: 6.70
- pIC50 [2]: 5.30
- pIC50 (IMP-1 (Imipenemase-1)): 5.60
- pIC50 [3]: 6.50
Compound: O=C(O)c1[nH]c2c(Br)csc2c1-c1ccc(F)cc1 [Example 4, 3-Bromo-6-(4-fluorophenyl)-4H-thieno-[3,2-b]pyrrole-5-carboxylic acid]

- pIC50 [1]: 3.90
- pIC50 [2]: < 3.60
- pIC50 (IMP-1 (Imipenemase-1)): < 3.60
- pIC50 [3]: 4.80
Compound: O=C(O)c1cc2scc(Br)c2[nH]1 [Example 3, 3-bromo-4H-thieno[3,2-b]pyrrole-5-carboxylic acid]

- MIC ([4]; Klebsiella pneumoniae, NDM1, read-out: MER MIC): > 128 µg/mL
- MIC ([5]; Pseudomonas aeruginosa, VIM2, read-out: MER MIC): 32 µg/mL (≈ 83.4 µM)
- MIC (E. coli VIM-1; Escherichia coli, VIM1, read-out: MER MIC): 0.25 µg/mL (≈ 0.652 µM)
Compound: C[C@@H](O)[C@H]1C(=O)N2C(C(=O)O)=C(S[C@@H]3CN[C@H](C(=O)N(C)C)C3)[C@H](C)[C@H]12 [meropenem, reference compound]

- pIC50 [1]: 4.90
- pIC50 [2]: < 4.40
- pIC50 (IMP-1 (Imipenemase-1)): 5.60
- pIC50 [3]: 5.00
Compound: O=C(O)c1[nH]c2c(-c3ccc(F)cc3)csc2c1-c1ccc(F)cc1 [Example 5, 3,6-Bis(4-fluorophenyl)-4H-thieno-[3,2-b]pyrrole-5-carboxylic acid]

- Change in MIC value of meropenem ([4]; 2 mg/L inhibitor): 0 log2 difference
- Change in MIC value of meropenem ([4]; 4 mg/L inhibitor): 0 log2 difference
- Change in MIC value of meropenem ([4]; 8 mg/L inhibitor): 0 log2 difference
- Change in MIC value of meropenem ([6]; 2 mg/L inhibitor): −2 log2 difference
- Change in MIC value of meropenem ([6]; 4 mg/L inhibitor): −2 log2 difference
- Change in MIC value of meropenem ([6]; 8 mg/L inhibitor): −2 log2 difference
- Change in MIC value of meropenem ([5]; 2 mg/L inhibitor): 0 log2 difference
- Change in MIC value of meropenem ([5]; 4 mg/L inhibitor): 0 log2 difference
- Change in MIC value of meropenem ([5]; 8 mg/L inhibitor): 0 log2 difference
- Change in MIC value of meropenem ([7]; 2 mg/L inhibitor): 0 log2 difference
- Change in MIC value of meropenem ([7]; 4 mg/L inhibitor): 0 log2 difference
- Change in MIC value of meropenem ([7]; 8 mg/L inhibitor): 0 log2 difference
- Change in MIC value of meropenem ([8]; 2 mg/L inhibitor): −3 log2 difference
- Change in MIC value of meropenem ([8]; 4 mg/L inhibitor): −2 log2 difference
- Change in MIC value of meropenem ([8]; 8 mg/L inhibitor): −3 log2 difference
- Change in MIC value of meropenem (E. coli IMP-4; 2 mg/L inhibitor): 0 log2 difference
- Change in MIC value of meropenem (E. coli IMP-4; 4 mg/L inhibitor): 0 log2 difference
- Change in MIC value of meropenem (E. coli IMP-4; 8 mg/L inhibitor): 0 log2 difference
- Change in MIC value of meropenem (E. coli VIM-1; 2 mg/L inhibitor): −1 log2 difference
- Change in MIC value of meropenem (E. coli VIM-1; 4 mg/L inhibitor): −1 log2 difference
- Change in MIC value of meropenem (E. coli VIM-1; 8 mg/L inhibitor): −1 log2 difference
Compound: CS(=O)(=O)Cc1ccc(-c2c(C(=O)O)[nH]c3c(C4CC4)csc23)cc1Cl [Example 18, 6-(3-chloro-4-((methylsulfonyl)methyl)phenyl)-3-cyclopropyl-4H-thieno[3,2-b]pyrrole-5-carboxylic acid]

- pIC50 [1]: 7.20
- pIC50 [2]: 6.20
- pIC50 (IMP-1 (Imipenemase-1)): 6.00
- pIC50 [3]: 7.40
Compound: O=C(O)c1[nH]c2c(Br)csc2c1-c1cc(Cl)cc(Cl)c1 [Example 1, 3-bromo-6-(3,5-dichlorophenyl)-4H-thieno[3,2-b]pyrrole-5-carboxylic acid]
